Results published in article PMC4076210, “Discovery of Novel AKT Inhibitors with Enhanced Anti-Tumor Effects in Combination with the MEK Inhibitor” (PLoS ONE, 2014).
Like-named read-outs stand apart in the source and are kept apart here.

Experiments:
Abl (M351T)(h) = molecular target: T1, Abl (M351T)(h) (Homo sapiens, UniProt P00519, M351T); test: Kinase panel; assay type: biochemical
T1 construct: purchased Millipore KinaseProfiler

DYRK2(h) = molecular target: T2, DYRK2(h) (Homo sapiens, UniProt Q92630); test: Kinase panel; assay type: biochemical
T2 construct: purchased Millipore KinaseProfiler
T2 sequence (Q92630 1-601): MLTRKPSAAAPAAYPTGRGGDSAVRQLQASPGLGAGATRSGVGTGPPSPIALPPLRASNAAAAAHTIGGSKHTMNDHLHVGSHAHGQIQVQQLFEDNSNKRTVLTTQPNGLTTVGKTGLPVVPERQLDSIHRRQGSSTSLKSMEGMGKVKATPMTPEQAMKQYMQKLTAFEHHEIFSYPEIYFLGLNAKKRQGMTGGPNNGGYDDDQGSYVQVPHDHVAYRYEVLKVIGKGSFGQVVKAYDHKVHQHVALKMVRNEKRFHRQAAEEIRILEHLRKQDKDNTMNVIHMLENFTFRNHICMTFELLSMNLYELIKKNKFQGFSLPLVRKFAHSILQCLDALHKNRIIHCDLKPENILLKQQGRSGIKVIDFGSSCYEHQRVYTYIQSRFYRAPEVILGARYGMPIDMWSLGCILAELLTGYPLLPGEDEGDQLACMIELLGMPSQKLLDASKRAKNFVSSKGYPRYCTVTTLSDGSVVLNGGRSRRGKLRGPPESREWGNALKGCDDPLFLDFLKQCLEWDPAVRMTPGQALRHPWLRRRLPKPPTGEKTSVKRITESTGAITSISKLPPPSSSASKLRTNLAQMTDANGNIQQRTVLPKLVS

EphB3(h) = molecular target: T3, EphB3(h) (Homo sapiens, UniProt P54753); test: Kinase panel; assay type: biochemical
T3 construct: purchased Millipore KinaseProfiler
T3 sequence (P54753 34-998): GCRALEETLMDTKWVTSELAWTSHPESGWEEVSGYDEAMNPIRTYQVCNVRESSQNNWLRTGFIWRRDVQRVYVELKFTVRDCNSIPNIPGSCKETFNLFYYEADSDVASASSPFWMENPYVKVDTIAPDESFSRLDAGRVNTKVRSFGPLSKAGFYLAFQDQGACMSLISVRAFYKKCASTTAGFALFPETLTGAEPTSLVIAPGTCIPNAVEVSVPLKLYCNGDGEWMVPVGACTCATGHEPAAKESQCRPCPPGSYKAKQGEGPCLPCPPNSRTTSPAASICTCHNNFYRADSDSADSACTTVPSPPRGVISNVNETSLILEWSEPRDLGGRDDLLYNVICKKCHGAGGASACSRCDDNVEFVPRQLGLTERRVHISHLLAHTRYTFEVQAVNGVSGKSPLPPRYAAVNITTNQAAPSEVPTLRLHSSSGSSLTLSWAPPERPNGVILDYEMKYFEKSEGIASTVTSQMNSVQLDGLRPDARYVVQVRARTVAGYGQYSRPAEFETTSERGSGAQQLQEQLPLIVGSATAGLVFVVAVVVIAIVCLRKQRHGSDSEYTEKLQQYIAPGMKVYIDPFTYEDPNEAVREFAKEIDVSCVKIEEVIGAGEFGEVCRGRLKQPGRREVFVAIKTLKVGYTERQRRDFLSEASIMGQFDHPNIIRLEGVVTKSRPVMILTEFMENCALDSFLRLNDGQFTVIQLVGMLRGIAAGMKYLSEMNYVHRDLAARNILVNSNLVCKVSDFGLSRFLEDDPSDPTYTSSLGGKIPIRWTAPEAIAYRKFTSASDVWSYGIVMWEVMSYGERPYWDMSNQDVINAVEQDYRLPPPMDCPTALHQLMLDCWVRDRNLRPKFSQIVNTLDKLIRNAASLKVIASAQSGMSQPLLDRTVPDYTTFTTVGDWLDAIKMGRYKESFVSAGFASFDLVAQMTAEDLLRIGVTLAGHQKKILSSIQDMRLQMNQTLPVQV

GSK3α(h) = molecular target: T4, GSK3α(h) (Homo sapiens, UniProt P49840); test: Kinase panel; assay type: biochemical
T4 construct: purchased Millipore KinaseProfiler

HIPK2(h) = molecular target: T5, HIPK2(h) (Homo sapiens, UniProt Q9H2X6); test: Kinase panel; assay type: biochemical
T5 construct: purchased Millipore KinaseProfiler

MLK1(h) = molecular target: T6, MLK1(h) (Homo sapiens, UniProt P80192); test: Kinase panel; assay type: biochemical
T6 construct: purchased Millipore KinaseProfiler

MSK1(h) = molecular target: T7, MSK1(h) (Homo sapiens, UniProt O75582); test: Kinase panel; assay type: biochemical
T7 construct: purchased Millipore KinaseProfiler

MST3(h) = molecular target: T8, MST3(h) (Homo sapiens, UniProt Q9Y6E0); test: Kinase panel; assay type: biochemical
T8 construct: purchased Millipore KinaseProfiler

mTOR/FKBP12(h) = molecular target: T9, mTOR/FKBP12(h) (Homo sapiens, UniProt P42345); test: Kinase panel; assay type: biochemical
T9 construct: purchased Millipore KinaseProfiler

PDGFRα(h) = molecular target: T10, PDGFRα(h) (Homo sapiens, UniProt P16234); test: Kinase panel; assay type: biochemical
T10 construct: purchased Millipore KinaseProfiler

PKCβII(h) = molecular target: T11, PKCβII(h) (Homo sapiens, UniProt P05771); test: Kinase panel; assay type: biochemical
T11 construct: purchased Millipore KinaseProfiler

Rsk1(r) = molecular target: T12, Rsk1(r) (Rattus norvegicus, UniProt Q63531); test: Kinase panel; assay type: biochemical
T12 construct: purchased Millipore KinaseProfiler

Rsk3(h) = molecular target: T13, Rsk3(h) (Homo sapiens, UniProt Q15349); test: Kinase panel; assay type: biochemical
T13 construct: purchased Millipore KinaseProfiler

Yes(h) = molecular target: T14, Yes(h) (Homo sapiens, UniProt P07947); test: Kinase panel; assay type: biochemical
T14 construct: purchased Millipore KinaseProfiler

ZIPK(h) = molecular target: T15, ZIPK(h) (Homo sapiens, UniProt O43293); test: Kinase panel; assay type: biochemical
T15 construct: purchased Millipore KinaseProfiler

PKCι = PKCι (Homo sapiens, UniProt P41743); test: Kinase IC50 assay; assay type: biochemical
ROCK = test: Kinase IC50 assay; assay type: biochemical
[1] = Plasma insulin after single oral dose; assay type: in vivo, mouse
Protocol: Blood glucose levels were determined from tail vein puncture in mice using a handheld glucometer. Plasma Insulin levels were using the Rat Ultrasensitive Insulin ELISA kit (Crystal Chem Inc).

T7 sequence (O75582 whole entry): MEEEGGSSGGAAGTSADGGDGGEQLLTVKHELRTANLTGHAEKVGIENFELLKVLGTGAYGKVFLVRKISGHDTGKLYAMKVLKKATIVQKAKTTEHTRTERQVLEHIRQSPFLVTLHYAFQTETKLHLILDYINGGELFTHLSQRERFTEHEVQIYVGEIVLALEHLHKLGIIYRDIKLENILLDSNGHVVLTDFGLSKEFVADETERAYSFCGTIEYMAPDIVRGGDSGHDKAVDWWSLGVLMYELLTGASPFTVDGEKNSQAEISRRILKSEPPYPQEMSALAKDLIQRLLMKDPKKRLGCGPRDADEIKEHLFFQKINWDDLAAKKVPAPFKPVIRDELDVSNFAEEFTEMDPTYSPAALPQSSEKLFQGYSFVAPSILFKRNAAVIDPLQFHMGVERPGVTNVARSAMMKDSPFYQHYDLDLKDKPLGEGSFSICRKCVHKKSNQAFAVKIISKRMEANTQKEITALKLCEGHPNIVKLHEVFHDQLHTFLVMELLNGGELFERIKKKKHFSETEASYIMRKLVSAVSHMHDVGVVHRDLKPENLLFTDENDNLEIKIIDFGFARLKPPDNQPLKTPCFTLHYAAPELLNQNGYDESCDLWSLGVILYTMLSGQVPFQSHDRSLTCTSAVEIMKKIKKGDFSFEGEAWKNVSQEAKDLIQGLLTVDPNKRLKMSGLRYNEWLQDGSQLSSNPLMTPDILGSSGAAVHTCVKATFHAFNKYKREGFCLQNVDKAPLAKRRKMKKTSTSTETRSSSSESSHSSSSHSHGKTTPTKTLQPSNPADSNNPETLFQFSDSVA
T14 sequence (P07947 whole entry): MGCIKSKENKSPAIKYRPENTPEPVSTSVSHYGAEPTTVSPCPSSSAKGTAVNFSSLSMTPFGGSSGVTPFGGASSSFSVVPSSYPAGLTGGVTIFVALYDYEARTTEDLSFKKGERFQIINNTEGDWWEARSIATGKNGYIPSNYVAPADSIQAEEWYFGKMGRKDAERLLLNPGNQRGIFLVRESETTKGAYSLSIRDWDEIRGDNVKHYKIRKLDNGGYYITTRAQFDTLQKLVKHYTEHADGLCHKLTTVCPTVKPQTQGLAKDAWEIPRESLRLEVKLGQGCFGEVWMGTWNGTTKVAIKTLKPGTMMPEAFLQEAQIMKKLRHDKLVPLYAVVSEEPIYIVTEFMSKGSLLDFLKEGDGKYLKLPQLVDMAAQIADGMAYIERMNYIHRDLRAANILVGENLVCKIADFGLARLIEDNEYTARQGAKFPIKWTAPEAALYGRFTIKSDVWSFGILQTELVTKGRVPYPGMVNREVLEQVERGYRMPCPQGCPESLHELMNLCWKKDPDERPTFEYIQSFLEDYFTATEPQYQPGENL
T6 sequence (P80192 whole entry): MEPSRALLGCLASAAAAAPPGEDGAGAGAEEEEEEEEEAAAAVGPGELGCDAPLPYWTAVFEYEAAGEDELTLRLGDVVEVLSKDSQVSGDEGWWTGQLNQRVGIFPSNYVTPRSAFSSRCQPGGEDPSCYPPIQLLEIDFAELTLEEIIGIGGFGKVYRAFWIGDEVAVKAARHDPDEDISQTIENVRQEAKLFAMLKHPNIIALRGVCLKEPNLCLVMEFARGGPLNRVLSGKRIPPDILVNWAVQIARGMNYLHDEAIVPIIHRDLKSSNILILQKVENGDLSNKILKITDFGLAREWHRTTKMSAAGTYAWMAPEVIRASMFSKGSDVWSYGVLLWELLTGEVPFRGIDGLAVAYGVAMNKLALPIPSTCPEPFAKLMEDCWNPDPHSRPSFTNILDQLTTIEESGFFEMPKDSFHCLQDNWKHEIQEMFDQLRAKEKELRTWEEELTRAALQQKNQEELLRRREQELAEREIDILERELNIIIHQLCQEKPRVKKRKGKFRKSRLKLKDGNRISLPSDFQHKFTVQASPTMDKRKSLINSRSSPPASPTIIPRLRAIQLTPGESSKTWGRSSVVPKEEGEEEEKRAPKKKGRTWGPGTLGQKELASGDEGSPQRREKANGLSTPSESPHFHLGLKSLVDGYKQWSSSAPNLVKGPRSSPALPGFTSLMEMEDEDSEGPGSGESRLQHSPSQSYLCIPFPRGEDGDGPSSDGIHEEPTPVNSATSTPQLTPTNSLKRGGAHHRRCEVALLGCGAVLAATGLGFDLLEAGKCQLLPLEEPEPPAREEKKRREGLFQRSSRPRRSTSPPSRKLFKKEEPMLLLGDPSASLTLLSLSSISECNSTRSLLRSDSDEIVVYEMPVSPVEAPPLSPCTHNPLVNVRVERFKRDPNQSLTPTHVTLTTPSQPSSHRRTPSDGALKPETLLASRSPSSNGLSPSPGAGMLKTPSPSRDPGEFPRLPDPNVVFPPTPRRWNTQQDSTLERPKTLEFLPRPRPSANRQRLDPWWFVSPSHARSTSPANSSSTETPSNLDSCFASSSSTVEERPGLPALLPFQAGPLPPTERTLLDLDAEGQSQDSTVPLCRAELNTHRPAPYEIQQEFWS
T12 sequence (Q63531 whole entry): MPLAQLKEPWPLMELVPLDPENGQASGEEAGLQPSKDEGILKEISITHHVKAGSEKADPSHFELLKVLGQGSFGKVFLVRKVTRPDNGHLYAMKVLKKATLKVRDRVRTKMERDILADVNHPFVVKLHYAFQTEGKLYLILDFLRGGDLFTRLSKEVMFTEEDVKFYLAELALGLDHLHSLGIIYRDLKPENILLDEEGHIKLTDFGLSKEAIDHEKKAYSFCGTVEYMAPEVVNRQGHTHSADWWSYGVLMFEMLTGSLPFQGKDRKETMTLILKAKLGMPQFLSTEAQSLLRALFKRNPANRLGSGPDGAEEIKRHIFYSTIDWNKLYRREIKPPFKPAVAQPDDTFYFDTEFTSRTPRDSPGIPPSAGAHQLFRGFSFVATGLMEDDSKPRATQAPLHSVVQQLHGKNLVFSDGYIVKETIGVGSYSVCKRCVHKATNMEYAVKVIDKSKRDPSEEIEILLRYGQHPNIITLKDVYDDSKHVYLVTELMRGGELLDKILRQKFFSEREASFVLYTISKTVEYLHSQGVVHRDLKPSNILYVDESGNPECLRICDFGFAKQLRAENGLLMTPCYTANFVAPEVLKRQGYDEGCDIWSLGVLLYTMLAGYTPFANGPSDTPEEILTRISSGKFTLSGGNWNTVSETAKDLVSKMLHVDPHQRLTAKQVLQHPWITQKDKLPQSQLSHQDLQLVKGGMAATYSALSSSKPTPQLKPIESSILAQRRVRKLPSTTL
T11 sequence (P05771 1-673 isoform P05771-2): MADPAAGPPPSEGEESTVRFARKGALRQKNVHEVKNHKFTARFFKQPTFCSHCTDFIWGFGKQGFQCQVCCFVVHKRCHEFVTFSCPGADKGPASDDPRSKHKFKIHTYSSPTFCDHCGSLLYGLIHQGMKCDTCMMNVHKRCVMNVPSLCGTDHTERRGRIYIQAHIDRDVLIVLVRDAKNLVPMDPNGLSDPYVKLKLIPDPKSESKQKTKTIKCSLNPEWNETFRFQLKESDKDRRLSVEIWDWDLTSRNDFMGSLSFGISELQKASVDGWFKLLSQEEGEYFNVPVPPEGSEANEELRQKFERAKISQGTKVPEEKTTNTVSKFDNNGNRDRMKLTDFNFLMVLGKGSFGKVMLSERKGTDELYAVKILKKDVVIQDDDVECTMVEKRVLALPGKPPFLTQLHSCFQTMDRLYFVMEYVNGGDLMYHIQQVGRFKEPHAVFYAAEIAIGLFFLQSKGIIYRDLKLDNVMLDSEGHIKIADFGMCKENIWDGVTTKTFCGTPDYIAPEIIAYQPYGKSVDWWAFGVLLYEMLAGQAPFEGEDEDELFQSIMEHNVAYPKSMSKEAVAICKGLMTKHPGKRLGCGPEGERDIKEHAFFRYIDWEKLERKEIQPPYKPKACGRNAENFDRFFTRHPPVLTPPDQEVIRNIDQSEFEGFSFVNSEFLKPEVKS
T5 sequence (Q9H2X6 whole entry): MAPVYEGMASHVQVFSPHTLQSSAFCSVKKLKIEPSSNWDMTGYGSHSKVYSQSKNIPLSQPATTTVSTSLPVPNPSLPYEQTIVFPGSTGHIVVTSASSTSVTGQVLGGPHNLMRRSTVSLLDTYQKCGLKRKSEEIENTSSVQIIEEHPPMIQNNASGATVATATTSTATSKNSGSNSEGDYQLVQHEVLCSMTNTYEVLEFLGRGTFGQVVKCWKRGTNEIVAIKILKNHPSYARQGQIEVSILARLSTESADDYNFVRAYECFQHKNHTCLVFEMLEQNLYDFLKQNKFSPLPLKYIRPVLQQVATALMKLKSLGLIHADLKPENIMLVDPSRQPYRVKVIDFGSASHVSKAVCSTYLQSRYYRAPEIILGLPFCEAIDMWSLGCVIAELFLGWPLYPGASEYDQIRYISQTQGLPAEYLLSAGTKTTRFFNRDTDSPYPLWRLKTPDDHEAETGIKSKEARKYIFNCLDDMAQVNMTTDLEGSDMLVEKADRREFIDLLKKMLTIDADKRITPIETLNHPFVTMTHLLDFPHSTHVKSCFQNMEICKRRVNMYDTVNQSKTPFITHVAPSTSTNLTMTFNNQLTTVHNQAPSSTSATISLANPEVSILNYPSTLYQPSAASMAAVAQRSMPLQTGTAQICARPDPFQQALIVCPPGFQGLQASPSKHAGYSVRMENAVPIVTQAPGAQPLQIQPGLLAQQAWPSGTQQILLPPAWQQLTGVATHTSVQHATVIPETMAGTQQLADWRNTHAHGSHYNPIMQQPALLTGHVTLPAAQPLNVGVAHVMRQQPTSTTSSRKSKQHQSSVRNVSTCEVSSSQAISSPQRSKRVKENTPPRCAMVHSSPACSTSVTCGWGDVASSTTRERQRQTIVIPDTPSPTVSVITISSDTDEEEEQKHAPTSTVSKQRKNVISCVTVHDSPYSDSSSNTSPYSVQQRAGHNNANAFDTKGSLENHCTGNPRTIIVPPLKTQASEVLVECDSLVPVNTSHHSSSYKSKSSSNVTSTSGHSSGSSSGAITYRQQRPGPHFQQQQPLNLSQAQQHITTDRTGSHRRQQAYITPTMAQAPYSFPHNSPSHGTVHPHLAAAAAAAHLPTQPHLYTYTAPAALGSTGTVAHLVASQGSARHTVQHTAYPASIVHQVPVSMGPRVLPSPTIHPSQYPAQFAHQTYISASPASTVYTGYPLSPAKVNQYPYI

For Cn1ncc(Cl)c1-c1cc(C(=O)N[C@H](CN)Cc2cccc(F)c2)sc1Cl [GSK2110183], the inhibition at 0.5 µM (Abl (M351T)(h)) was 0%, the inhibition at 10 µM (Abl (M351T)(h)) was 24% and the inhibition at 0.5 µM (DYRK2(h)) was 2%. It also gave an inhibition at 10 µM (DYRK2(h)) of 24%, an inhibition at 0.5 µM (EphB3(h)) of 12% and an inhibition at 10 µM (EphB3(h)) of -9%. The inhibition at 0.5 µM (GSK3α(h)) was -2%, the inhibition at 10 µM (GSK3α(h)) was -1% and the inhibition at 0.5 µM (HIPK2(h)) was 25%. The inhibition at 10 µM (HIPK2(h)) was 87%, the inhibition at 0.5 µM (MLK1(h)) was -8% and the inhibition at 10 µM (MLK1(h)) was 11%. It also gave an inhibition at 0.5 µM (MSK1(h)) of 85%, an inhibition at 10 µM (MSK1(h)) of 98% and an inhibition at 0.5 µM (MST3(h)) of 14%. For the same compound, the inhibition at 10 µM (MST3(h)) was 50%, the inhibition at 0.5 µM (mTOR/FKBP12(h)) was 3% and the inhibition at 10 µM (mTOR/FKBP12(h)) was 5%. For the same compound, the inhibition at 0.5 µM (PDGFRα(h)) was -2%, the inhibition at 10 µM (PDGFRα(h)) was -2% and the inhibition at 0.5 µM (PKCβII(h)) was 2%. It also gave an inhibition at 10 µM (PKCβII(h)) of 75%, an inhibition at 0.5 µM (Rsk1(r)) of 24% and an inhibition at 10 µM (Rsk1(r)) of 89%. The inhibition at 0.5 µM (Rsk3(h)) was 35%, the inhibition at 10 µM (Rsk3(h)) was 89% and the inhibition at 0.5 µM (Yes(h)) was 2%. For the same compound, the inhibition at 10 µM (Yes(h)) was 38%, the inhibition at 0.5 µM (ZIPK(h)) was 0% and the inhibition at 10 µM (ZIPK(h)) was 62%. The IC50 (PKCι) was > 1000 nM, the IC50 (ROCK) was 100 nM and the “time for insulin to return to baseline” value ([1]; 100 mg/kg single oral dose) was ≤ 8 h. It also gave an insulin level ([1]; 100 mg/kg single oral dose, 4 h post dosing) of 105.6 ng/mL.
Cn1ncc(Cl)c1-c1cc(C(=O)N[C@H](CN)Cc2ccc(F)c(F)c2)oc1Cl [GSK2141795] gave an inhibition at 0.5 µM (Abl (M351T)(h); 0.5 µM, read-out: % Inhibition) of -7%, an inhibition at 10 µM (Abl (M351T)(h); 10 µM, read-out: % Inhibition) of -3% and an inhibition at 0.5 µM (DYRK2(h); 0.5 µM, read-out: % Inhibition) of 16%. For the same compound, the inhibition at 10 µM (DYRK2(h); 10 µM, read-out: % Inhibition) was 64%, the inhibition at 0.5 µM (EphB3(h); 0.5 µM, read-out: % Inhibition) was -2% and the inhibition at 10 µM (EphB3(h); 10 µM, read-out: % Inhibition) was 9%. The inhibition at 0.5 µM (GSK3α(h); 0.5 µM, read-out: % Inhibition) was -26%, the inhibition at 10 µM (GSK3α(h); 10 µM, read-out: % Inhibition) was -19% and the inhibition at 0.5 µM (HIPK2(h); 0.5 µM, read-out: % Inhibition) was 26%. It also gave an inhibition at 10 µM (HIPK2(h); 10 µM, read-out: % Inhibition) of 83%, an inhibition at 0.5 µM (MLK1(h); 0.5 µM, read-out: % Inhibition) of -14% and an inhibition at 10 µM (MLK1(h); 10 µM, read-out: % Inhibition) of 45%. For the same compound, the inhibition at 0.5 µM (MSK1(h); 0.5 µM, read-out: % Inhibition) was 90%, the inhibition at 10 µM (MSK1(h); 10 µM, read-out: % Inhibition) was 95% and the inhibition at 0.5 µM (MST3(h); 0.5 µM, read-out: % Inhibition) was 10%. The inhibition at 10 µM (MST3(h); 10 µM, read-out: % Inhibition) was 63%, the inhibition at 0.5 µM (mTOR/FKBP12(h); 0.5 µM, read-out: % Inhibition) was -19% and the inhibition at 10 µM (mTOR/FKBP12(h); 10 µM, read-out: % Inhibition) was -21%. For the same compound, the inhibition at 0.5 µM (PDGFRα(h); 0.5 µM, read-out: % Inhibition) was -4%, the inhibition at 10 µM (PDGFRα(h); 10 µM, read-out: % Inhibition) was -4% and the inhibition at 0.5 µM (PKCβII(h); 0.5 µM, read-out: % Inhibition) was 44%. For the same compound, the inhibition at 10 µM (PKCβII(h); 10 µM, read-out: % Inhibition) was 91%, the inhibition at 0.5 µM (Rsk1(r); 0.5 µM, read-out: % Inhibition) was 57% and the inhibition at 10 µM (Rsk1(r); 10 µM, read-out: % Inhibition) was 95%. For the same compound, the inhibition at 0.5 µM (Rsk3(h); 0.5 µM, read-out: % Inhibition) was 51%, the inhibition at 10 µM (Rsk3(h); 10 µM, read-out: % Inhibition) was 94% and the inhibition at 0.5 µM (Yes(h); 0.5 µM, read-out: % Inhibition) was -4%. The inhibition at 10 µM (Yes(h); 10 µM, read-out: % Inhibition) was 83%, the inhibition at 0.5 µM (ZIPK(h); 0.5 µM, read-out: % Inhibition) was 19% and the inhibition at 10 µM (ZIPK(h); 10 µM, read-out: % Inhibition) was 78%. The IC50 (PKCι) was > 1000 nM, the IC50 (ROCK) was 126 nM and the “time for insulin to return to normal” value ([1]; single 30 mg/kg dose) was ≤ 8 h. The plasma insulin ([1]; single 30 mg/kg dose, concomitant with glucose at 2 h) was 188 ng/mL.
